US5985281A, “Chemical compounds” (Zeneca Limited, priority 1994, dated 1999)
Read-outs that look alike come from different tables or passages of the source. Residues, ends and D or L forms follow the SMILES beside them.

Experiments:
[1] = tested on: Lys66Glu BP-RNase; experiment: Enzyme kinetics of prodrug analogues with mutant Lys66Glu bovine RNase; settings: 25° C.
[2] = tested on: D253K mutant HCPB; experiment: Determination of Km and kcat of D253K mutant HCPB with Hipp-Asp and Hipp-Glu; format: biochemical, human; settings: for Km / kcat / kcat/Km: pH 7.5, 37° C.
[3] = tested on: Lys66Glu BP-RNase; format: biochemical, bovine; settings: for kcat/Km: pH 7.5
[4] = tested on: HP-RNase; format: biochemical, human; settings: pH 7
[5] = tested on: Arg4Ala,Lys6Ala,Lys66Glu HP-RNase; format: biochemical, human; settings: for kcat/Km: pH 7
[6] = tested on: LoVo tumour; experiment: Anti-tumour activity in LoVo xenografted mice; format: in vivo, athymic nude mice; settings: conjugate 10-100 mg/kg iv, then prodrug 100-1000 mg/kg iv or ip; vs untreated, conjugate or prodrug alone
Procedure: LoVo tumour cells (10^7) are injected subcutaneously into athymic nude mice. When the tumours are 4-5 mm in diameter the conjugate is administered iv at doses between 10-100 mg/kg. Following localisation of the conjugate to the tumours and allowing a suitable time interval for residual conjugate to clear from the bloodstream and normal tissues (1-4 days) the prodrug is administered either iv or ip to the mice in dose ranging between 100-1000 mg/kg.

[7] = target: T1, BP-RNase (Bos taurus, UniProt P61823); experiment: Enzyme kinetics of RNase prodrug versus native bovine pancreatic RNase; format: biochemical; settings: 37° C., pH 7.5
T1 sequence (P61823 27-150): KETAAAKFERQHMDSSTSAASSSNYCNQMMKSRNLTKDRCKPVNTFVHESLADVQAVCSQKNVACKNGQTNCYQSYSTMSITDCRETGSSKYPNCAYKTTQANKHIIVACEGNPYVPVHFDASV

[8] = tested on: LoVo colorectal tumour cells
[9] = target: C > p; experiment: Kinetic characterisation of RNase enzymes with C>p as substrate at pH 7.0; format: biochemical; settings: CpA and C>p as substrates
Procedure: The kinetic characterisation was carried out using CpA and C>p as substrates (FIG. 16). The kinetic parameters Km, kcat, and kcat/Km were compared with the values obtained for commercial and recombinant bovine pancreatic RNase under the same assay conditions (see Tables).
Kinetic parameters of the different enzymes for C > p as […]

[10] = Enzymic activity of recombinant HCPB against Hipp-Arg (spectrophotometric); format: biochemical; settings: Tris HCl pH 7.5
Procedure: Purified human CPB, produced as described in Reference Example 20, was assayed for its ability to convert hippuryl-L-arginine (Hipp-Arg) to hippuric acid using a spectrophotometric assay.
Km and Vmax values were calculated using the ENZFITTER™ software programme (Biosoft™, Perkin Elmer). Kcat was calculated form Vmax by dividing by the enzyme concentration in the reaction mixture.

[11] = HCPB activity of COS cell supernatants against Hipp-Arg; format: biochemical; settings: COS-7 supernatant (250 μl), 5 h assay
[12] = Conversion of Hipp-Asp to hippuric acid by mutant and native human CPB (HPLC); format: biochemical; settings: 0.5 mM Hipp-Asp, 4 μg enzyme, 5 h, 37° C., pH 7.5
[13] = Conversion of Hipp-Glu to hippuric acid by mutant and native human CPB (HPLC); format: biochemical; settings: 0.5 mM Hipp-Glu, 4 μg enzyme, 5 h, 37° C., pH 7.5
[14] = Conversion of Hipp-Arg to hippuric acid by mutant and native human CPB (HPLC); format: biochemical; settings: 4 μg enzyme, 5 h, 37° C., pH 7.5
[15] = tested on: C>p; experiment: RNase activity of recombinant and Lys66Glu bovine RNase on hydrolysis of C>p (and CpA); format: biochemical

Question: For `CCCN(CCC)c1ccc(OP(=O)(O)O[C@H]2[C@@H](O)[C@H](n3ccc(=O)[nH]c3=O)O[C@@H]2CNC(=O)CN)cc1` [Reference Example 6], which kcat/Km [1] is on record?
Answer: 25(6) mM^-1 s^-1

Question: Which results are given for `O=C(O)CC[C@H](NC(=O)CNC(=O)c1ccccc1)C(=O)O` [Hipp-Glu, hippuryl-L-glutamic acid] (HELM PEPTIDE1{[O=C(c1ccccc1)[*:2]].G.E}$$$$V2.0)?
Answer: kcat/Km compared to the Hipp-Asp substrate ([2]; Hipp-Glu vs Hipp-Asp): approximately 7 fold; Km [2]: 5.3 mM; kcat [2]: 3.8 s⁻¹; kcat/Km [2]: 700 M⁻¹ s⁻¹

Question: For `Nc1ccn([C@@H]2O[C@H](CO)[C@H]3OP(=O)(O)O[C@H]32)c(=O)n1` [C > p, cytidine-2',3'-cyclic monophosphate, reference compound], which kcat/Km [3] is on record?
Answer: 3.0

Question: And the kcat/Km [4]?
Answer: 1.2

Question: What about the kcat/Km [5] of the same molecule?
Answer: 1.2

Question: What about the kcat/Km [1] of the same molecule?
Answer: 3.0 mM⁻¹ s⁻¹

Question: With `O=C(O)C[C@H](NC(=O)CNC(=O)c1ccccc1)C(=O)O` [Hipp-Asp, hippuryl-L-aspartic acid] (HELM PEPTIDE1{[O=C(c1ccccc1)[*:2]].G.D}$$$$V2.0) as the molecule, how does the Km [2] read?
Answer: 2.7 mM

Question: And the kcat [2]?
Answer: 0.26 s⁻¹

Question: And the kcat/Km [2]?
Answer: 100 M⁻¹ s⁻¹

Question: For `CCCN(CCC)c1ccc(OP(=O)(O)O[C@H]2[C@@H](O)[C@H](n3ccc(N)nc3=O)O[C@@H]2CNC(=O)CN)cc1` [Reference Example 7], which kcat/Km [1] is on record?
Answer: 109(11) mM^-1 s^-1

Question: What does the source list for `NCC(=O)NC[C@H]1O[C@@H](n2ccc(=O)[nH]c2=O)[C@H](O)[C@@H]1OP(=O)(O)Oc1ccc(N(CCCl)CCCl)cc1` [Example 3, O-[(2R,3S,4R,5R)-2-(2-aminoacetamidomethyl)-5-(2,4-dioxo-1,2,3,4-tetrahydropyrimidin-1-yl)-4-hydroxy-2,3,4,5-tetrahydrofuran-3-yl]O-[4-(bis[2-chloroethyl]amino)phenyl] hydrogen phosphate]?
Answer: tumour growth with combination of conjugate and prodrug [6]: significantly slower; kcat/Km [7]: 370 M⁻¹ s⁻¹; rate of hydrolysis compared with native enzyme [3]: much faster than the native enzyme; kcat/Km [3]: 18; kcat/Km [4]: 0.2; rate of hydrolysis compared with native enzyme [5]: much faster than the native enzyme; kcat/Km [5]: 3.6; cytotoxicity of prodrug with A5B7 F(ab')2-Arg4Ala,Lys6Ala,Lys66Glu HP-RNase conjugate [8]: comparable to that of the active drug; cytotoxicity of prodrug with free Arg4Ala,Lys6Ala,Lys66Glu HP-RNase [8]: comparable to that of the active drug; fold less cytotoxic than the drug ([8]; human): approximately 30 fold; IC50 ([8]; read-out: IC50 (inhibition of cell growth by 50%)): ~30 µM

B1: Rec. HP-RNase R4A:K6A: recombinant Arg4Ala,Lys6Ala human pancreatic ribonuclease (protein, UniProt P07998 29-156, looked up, variant R4A K6A)
Ribonuclease pancreatic: KESAAAKFQRQHMDSDSSPSSSSTYCNQMMRRRNMTQGRCKPVNTFVHEPLVDVQNVCFQEKVTCKNGQGNCYKSNSSMHITDCRLTNGSRYPNCAYRTSPKERHIIVACEGSPYVPVHFDASVEDST
Question: With B1 as the molecule, how does the “kinetic properties compared with homologous bovine counterpart” value [9] read?
Answer: not significantly different

B2: Native CPB: native human pancreatic carboxypeptidase B, recombinant (protein, UniProt P15086 111-417, looked up)
Carboxypeptidase B: ATGHSYEKYNKWETIEAWTQQVATENPALISRSVIGTTFEGRAIYLLKVGKAGQNKPAIFMDCGFHAREWISPAFCQWFVREAVRTYGREIQVTELLDKLDFYVLPVLNIDGYIYTWTKSRFWRKTRSTHTGSSCIGTDPNRNFDAGWCEIGASRNPCDETYCGPAAESEKETKALADFIRNKLSSIKAYLTIHSYSQMMIYPYSYAYKLGENNAELNALAKATVKELASLHGTKYTYGPGATTIYPAAGGSDDWAYDQGIRYSFTFELRDTGRYGFLLPESQIRATCEETFLAIKYVASYVLEHLY
Question: Which results are given for B2?
Answer: kcat [10]: 65 s⁻¹; hydrolysis of Hipp-Arg substrate ([11]; LIPOFECTIN-only control 1.2%): 61%; % conversion to Hippuric acid, Hipp-Asp [12]: 0%; % conversion to Hippuric acid, Hipp-Glu [13]: 0%; % conversion to Hippuric acid, Hipp-Arg [14]: 100%

B3: proHCPB: pro form of human pancreatic carboxypeptidase B expressed from COS cells (protein, UniProt P15086 16-417, looked up)
pro-form: HHGGEHFEGEKVFRVNVEDENHINIIRELASTTQIDFWKPDSVTQIKPHSTVDFRVKAEDTVTVENVLKQNELQYKVLISNLRNVVEAQFDSRVRATGHSYEKYNKWETIEAWTQQVATENPALISRSVIGTTFEGRAIYLLKVGKAGQNKPAIFMDCGFHAREWISPAFCQWFVREAVRTYGREIQVTELLDKLDFYVLPVLNIDGYIYTWTKSRFWRKTRSTHTGSSCIGTDPNRNFDAGWCEIGASRNPCDETYCGPAAESEKETKALADFIRNKLSSIKAYLTIHSYSQMMIYPYSYAYKLGENNAELNALAKATVKELASLHGTKYTYGPGATTIYPAAGGSDDWAYDQGIRYSFTFELRDTGRYGFLLPESQIRATCEETFLAIKYVASYVLEHLY
modifications: pro-form
notes: pro form of human pancreatic carboxypeptidase B expressed from COS cells
Question: For B3, which “hydrolysis of Hipp-Arg substrate after activation with trypsin” value ([11]; trypsin 700 μg/ml, LIPOFECTIN-only control 30%) is on record?
Answer: complete hydrolysis

B4: Rec. BP-RNase: recombinant bovine pancreatic ribonuclease (protein, UniProt P61823 27-150, looked up)
Ribonuclease pancreatic: KETAAAKFERQHMDSSTSAASSSNYCNQMMKSRNLTKDRCKPVNTFVHESLADVQAVCSQKNVACKNGQTNCYQSYSTMSITDCRETGSSKYPNCAYKTTQANKHIIVACEGNPYVPVHFDASV
Question: With B4 as the molecule, how does the “specific activity compared with the commercial enzyme” value ([15]; hydrolysis of CpA and C>p) read?
Answer: equal specific activity to that of the commercial enzyme

B5: Lys66Glu BP-RNase: bovine Lys66Glu pancreatic ribonuclease (protein, UniProt P61823 27-150, looked up, variant K66E)
Ribonuclease pancreatic: KETAAAKFERQHMDSSTSAASSSNYCNQMMKSRNLTKDRCKPVNTFVHESLADVQAVCSQKNVACENGQTNCYQSYSTMSITDCRETGSSKYPNCAYKTTQANKHIIVACEGNPYVPVHFDASV
Question: With B5 as the molecule, how does the “kinetic properties compared with commercial bovine enzyme” value ([15]; C>p hydrolysis, pH 7.0) read?
Answer: not significantly different to the commercial bovine enzyme
